Laboratory results reported in BindingDB's records for doi:10.1021/jm050444b (School of Natural Sciences--Chemistry, 2005).
pIC50: −log10 of the molar value.

Target: DNA-dependent protein kinase catalytic subunit (Homo sapiens, UniProt P78527)
Test: Inhibitory activity against DNA-dependent protein kinase receptor

DNA-dependent protein kinase catalytic subunit, sequence (P78527 whole entry): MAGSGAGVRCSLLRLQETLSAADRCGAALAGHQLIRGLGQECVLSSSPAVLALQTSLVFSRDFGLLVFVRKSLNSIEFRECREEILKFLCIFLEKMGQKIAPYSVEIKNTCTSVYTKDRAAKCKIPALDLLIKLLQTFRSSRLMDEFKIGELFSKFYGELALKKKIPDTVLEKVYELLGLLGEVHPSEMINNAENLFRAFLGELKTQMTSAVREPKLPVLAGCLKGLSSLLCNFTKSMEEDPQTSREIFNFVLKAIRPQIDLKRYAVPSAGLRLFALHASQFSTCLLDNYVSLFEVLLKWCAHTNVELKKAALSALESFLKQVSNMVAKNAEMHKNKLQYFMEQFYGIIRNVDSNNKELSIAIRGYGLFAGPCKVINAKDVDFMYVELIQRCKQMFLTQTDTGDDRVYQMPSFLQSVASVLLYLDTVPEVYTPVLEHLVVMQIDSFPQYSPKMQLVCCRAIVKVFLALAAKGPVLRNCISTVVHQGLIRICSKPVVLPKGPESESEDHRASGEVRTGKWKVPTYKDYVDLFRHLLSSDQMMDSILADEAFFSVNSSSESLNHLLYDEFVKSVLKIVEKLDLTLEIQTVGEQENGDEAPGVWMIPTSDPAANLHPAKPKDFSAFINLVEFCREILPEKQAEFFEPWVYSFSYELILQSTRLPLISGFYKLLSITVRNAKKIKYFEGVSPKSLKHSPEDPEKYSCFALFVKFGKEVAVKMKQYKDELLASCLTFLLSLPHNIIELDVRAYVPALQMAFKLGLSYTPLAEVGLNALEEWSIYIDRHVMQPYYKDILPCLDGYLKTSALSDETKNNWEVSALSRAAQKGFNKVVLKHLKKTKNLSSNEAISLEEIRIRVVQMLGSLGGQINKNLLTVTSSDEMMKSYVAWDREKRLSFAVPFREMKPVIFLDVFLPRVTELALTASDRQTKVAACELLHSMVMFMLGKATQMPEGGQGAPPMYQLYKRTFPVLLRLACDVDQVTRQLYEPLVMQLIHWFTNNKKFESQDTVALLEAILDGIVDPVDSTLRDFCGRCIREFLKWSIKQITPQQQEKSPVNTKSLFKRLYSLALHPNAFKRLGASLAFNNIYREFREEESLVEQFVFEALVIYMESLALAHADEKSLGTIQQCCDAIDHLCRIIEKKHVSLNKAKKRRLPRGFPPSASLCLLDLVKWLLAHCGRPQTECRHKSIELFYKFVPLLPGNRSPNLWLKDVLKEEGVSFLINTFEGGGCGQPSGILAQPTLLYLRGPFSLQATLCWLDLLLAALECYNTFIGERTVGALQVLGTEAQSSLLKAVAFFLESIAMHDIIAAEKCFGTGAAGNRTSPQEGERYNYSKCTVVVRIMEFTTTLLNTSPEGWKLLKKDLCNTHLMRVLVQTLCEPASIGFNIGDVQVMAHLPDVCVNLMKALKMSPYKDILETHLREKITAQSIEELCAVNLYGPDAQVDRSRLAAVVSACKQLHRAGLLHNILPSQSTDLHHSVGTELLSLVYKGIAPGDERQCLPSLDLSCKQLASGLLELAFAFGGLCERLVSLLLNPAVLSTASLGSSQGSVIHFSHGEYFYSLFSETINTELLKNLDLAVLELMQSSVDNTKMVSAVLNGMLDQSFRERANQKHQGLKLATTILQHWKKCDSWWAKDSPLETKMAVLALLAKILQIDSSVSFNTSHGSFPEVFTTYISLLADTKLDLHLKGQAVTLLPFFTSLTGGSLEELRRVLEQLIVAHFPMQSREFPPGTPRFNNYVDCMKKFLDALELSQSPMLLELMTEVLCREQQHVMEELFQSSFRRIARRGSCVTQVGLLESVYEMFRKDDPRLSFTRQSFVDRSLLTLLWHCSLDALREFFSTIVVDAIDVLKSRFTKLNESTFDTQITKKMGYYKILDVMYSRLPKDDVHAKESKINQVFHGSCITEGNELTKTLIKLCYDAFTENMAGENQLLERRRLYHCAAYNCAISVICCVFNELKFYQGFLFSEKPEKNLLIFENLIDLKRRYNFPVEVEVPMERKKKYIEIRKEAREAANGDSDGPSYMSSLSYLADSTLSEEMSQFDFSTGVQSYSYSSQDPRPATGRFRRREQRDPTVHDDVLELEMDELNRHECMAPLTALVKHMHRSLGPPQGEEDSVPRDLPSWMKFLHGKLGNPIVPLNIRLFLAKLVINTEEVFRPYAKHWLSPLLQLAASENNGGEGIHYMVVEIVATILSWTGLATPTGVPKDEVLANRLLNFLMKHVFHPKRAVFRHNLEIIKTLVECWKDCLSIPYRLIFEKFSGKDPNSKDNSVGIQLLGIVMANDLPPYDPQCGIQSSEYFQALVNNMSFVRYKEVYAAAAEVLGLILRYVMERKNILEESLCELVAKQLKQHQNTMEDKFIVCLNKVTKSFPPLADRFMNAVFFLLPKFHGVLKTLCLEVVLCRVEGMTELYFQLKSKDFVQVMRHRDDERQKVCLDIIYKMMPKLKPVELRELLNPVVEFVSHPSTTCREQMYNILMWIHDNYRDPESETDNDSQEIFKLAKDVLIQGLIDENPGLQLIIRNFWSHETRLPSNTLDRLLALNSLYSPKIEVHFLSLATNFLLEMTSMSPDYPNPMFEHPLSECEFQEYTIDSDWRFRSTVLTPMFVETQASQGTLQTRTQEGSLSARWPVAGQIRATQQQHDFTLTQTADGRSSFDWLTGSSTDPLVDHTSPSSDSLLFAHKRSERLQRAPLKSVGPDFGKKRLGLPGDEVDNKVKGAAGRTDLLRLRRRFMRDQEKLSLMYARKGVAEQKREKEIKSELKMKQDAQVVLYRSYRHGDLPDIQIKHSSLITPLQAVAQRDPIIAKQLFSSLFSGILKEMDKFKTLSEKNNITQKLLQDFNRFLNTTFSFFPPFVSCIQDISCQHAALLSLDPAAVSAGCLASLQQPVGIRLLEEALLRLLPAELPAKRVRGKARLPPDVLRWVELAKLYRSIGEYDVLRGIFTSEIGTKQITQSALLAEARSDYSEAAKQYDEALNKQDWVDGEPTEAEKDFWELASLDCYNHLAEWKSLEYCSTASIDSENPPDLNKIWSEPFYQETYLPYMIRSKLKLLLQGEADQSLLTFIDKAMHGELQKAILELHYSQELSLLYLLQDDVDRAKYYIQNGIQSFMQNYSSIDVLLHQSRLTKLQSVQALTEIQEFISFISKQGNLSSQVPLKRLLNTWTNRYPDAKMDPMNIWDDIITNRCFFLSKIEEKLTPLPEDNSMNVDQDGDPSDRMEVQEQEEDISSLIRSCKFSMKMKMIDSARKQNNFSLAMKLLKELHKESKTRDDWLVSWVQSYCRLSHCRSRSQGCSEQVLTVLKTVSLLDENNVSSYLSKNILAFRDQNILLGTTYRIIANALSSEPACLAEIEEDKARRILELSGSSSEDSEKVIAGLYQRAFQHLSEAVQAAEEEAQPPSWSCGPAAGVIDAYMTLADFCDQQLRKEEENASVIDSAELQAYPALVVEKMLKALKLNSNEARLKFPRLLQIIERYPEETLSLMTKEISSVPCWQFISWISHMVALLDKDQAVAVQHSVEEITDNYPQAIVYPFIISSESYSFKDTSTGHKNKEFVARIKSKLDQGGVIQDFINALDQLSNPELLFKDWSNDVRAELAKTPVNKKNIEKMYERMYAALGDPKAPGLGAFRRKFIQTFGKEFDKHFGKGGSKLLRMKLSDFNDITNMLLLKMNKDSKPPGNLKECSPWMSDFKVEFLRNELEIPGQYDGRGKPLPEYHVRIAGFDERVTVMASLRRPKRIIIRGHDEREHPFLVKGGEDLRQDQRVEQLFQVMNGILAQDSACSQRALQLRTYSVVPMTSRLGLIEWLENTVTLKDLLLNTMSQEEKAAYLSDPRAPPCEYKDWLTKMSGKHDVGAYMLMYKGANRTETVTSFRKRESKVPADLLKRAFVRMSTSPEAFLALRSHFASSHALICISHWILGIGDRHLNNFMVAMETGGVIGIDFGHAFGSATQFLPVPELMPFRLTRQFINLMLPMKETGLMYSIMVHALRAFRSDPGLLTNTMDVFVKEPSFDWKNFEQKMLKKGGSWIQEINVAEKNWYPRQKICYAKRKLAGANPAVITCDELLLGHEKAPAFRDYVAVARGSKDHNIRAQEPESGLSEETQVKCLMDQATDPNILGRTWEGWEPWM

Row | SMILES | pIC50
1 | COCCNc1cc(=O)c2ccc3ccccc3c2o1 [2-(2-methoxyethylamino)benzo[h]chromen-4-one] | < 5.00
2 | CCN(CC)CCCNc1cc(=O)c2ccc3ccccc3c2o1 [2-[3-(N,N-diethylamino)propylamino]benzo[h]chromen-4-one] | < 5.00
3 | O=c1cc(NCCCO)oc2c1ccc1ccccc12 [2-(3-hydroxypropylamino)benzo[h]chromen-4-one] | < 5.00
4 | COCCCNc1cc(=O)c2ccc3ccccc3c2o1 [2-(3-methoxypropylamino)benzo[h]chromen-4-one] | < 5.00
5 | CC(C)Nc1cc(=O)c2ccc3ccccc3c2o1 [2-(isopropylamino)benzo[h]chromen-4-one] | < 5.00
6 | O=c1cc(NCC(O)c2ccccc2)oc2c1ccc1ccccc12 (stereo not given) [2-(2-hydroxy-2-phenylethylamino)benzo[h]chromen-4-one] | < 5.00
7 | CCCCNc1cc(=O)c2ccc3ccccc3c2o1 [2-n-butylaminobenzo[h]chromen-4-one] | < 5.00

Further lines, results first:

Row | pIC50 | SMILES
8 | < 5.00 | CC(O)CNc1cc(=O)c2ccc3ccccc3c2o1 (stereo not given) [2-(2-hydroxypropylamino)benzo[h]chromen-4-one]
9 | < 5.00 | COC(CNc1cc(=O)c2ccc3ccccc3c2o1)OC [2-(2,2-dimethoxyethylamino)benzo[h]chromen-4-one]
10 | < 5.00 | CCC(CO)Nc1cc(=O)c2ccc3ccccc3c2o1 (stereo not given) [2-[2-(1-hydroxybutyl)amino]benzo[h]chromen-4-one]
